# Measured values reported in article PMC6476928 (Frontiers in Pharmacology, 2019).
# Positions count from the first letter of the chain named.
# How the values were obtained:
# Kv4.2 V285A = molecular target: T1, Kv4.2 V285A (Homo sapiens, UniProt Q9NZV8, V285A); assay: Patch clamp of Kv4.2 mutant V285A in HEK293T cells; format: cell-based
# T1 construct: expressed in transfected cells; host or cells: HEK293T
# T1 sequence (Q9NZV8 1-630 V285A): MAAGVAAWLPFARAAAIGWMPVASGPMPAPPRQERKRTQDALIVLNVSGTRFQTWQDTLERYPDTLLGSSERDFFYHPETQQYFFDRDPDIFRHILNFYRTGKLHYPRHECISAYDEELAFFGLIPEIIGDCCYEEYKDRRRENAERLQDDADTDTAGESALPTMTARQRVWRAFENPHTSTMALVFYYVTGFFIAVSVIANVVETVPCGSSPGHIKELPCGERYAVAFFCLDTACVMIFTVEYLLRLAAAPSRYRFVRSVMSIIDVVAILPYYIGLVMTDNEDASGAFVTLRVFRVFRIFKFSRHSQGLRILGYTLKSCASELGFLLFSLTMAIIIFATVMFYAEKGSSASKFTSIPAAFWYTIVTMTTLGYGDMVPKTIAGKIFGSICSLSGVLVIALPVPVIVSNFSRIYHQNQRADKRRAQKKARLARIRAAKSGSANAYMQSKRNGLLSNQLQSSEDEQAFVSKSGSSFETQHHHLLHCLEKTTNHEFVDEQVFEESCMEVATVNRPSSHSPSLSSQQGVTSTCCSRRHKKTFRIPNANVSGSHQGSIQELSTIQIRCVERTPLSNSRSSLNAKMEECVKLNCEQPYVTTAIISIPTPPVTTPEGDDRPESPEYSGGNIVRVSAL
# T1 sequence (Q9NS61 1-270 partner): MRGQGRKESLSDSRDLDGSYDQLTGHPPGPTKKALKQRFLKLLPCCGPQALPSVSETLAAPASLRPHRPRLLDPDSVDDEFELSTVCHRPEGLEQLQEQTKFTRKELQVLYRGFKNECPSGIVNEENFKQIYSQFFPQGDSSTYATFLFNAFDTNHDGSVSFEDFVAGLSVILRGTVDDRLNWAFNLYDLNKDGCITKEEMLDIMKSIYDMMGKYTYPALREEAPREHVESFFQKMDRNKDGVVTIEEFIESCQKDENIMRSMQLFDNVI
# Description: (§1) Human embryonic kidney cell line (HEK293T) was obtained from Shanghai Institute of Cell Biology, Chinese Academy of Sciences (Shanghai, China) and maintained with 5% CO2 at 37°C in DMEM supplemented with 10% heat-inactivated fetal calf and serum (FBS), penicillin (100 U/ml), and streptomycin (100 μg/ml). The WT/mutant Kv4.2 plasmids were transiently transfected into HEK293T by Lipofectamine^TM 2000 Reagent (Invitrogen), and the KChIP2 subunits were co-transfected with Kv4.2.
# (§2) The extracellular buffer and pipette solution for AP, Ito, and Kv4.2 were used as follows.
# (§3) Kv4.2 current, The pipette solution contained (mM) 140 KF, 5 ATP-2Na, 1 EGTA, and 10 HEPEs (pH = 7.4). […] The steady-state activation of Kv4.2 was measured with the holding potential −80 mV and applied from −80 mV to 70 mV (10-mV increments). Steady-state inactivation of Kv4.2 channel measured with a series of a 300-ms depolarizing test potential of 10 mV followed a 1000-ms prepulse at potentials ranging from −120 to +70 mV with a 5-mV increment.
# (§4) Data were analyzed using the clampfit (Axon) and Origin 9 software programs. […] The steady-state activation relationship was measured using Boltzmann function (f(V) = 1/{1 + exp[−(V−V1/2)/k]}^4). Steady-state inactivation was measured using the Boltzmann function f(V) = 1/{1 + exp[−(V − V1/2)/k]}.
# Kv4.2 V290A = molecular target: T2, Kv4.2 V290A (Homo sapiens, UniProt Q9NZV8, V290A); assay: Patch clamp of Kv4.2 mutant V290A in HEK293T cells; format: cell-based
# T2 construct: expressed in transfected cells; host or cells: HEK293T
# T2 sequence (Q9NZV8 1-630 V290A): T1 sequence (Q9NZV8 1-630 V285A) with A285V, V290A
# T2 sequence (Q9NS61 1-270 partner): T1 sequence (Q9NS61 1-270 partner)
# Description: as §1, §2, §3, §4
# kv2.1 = settings: 5µM, X. laevis oocytes; cited from earlier work
# Text: Supplement Data_Sheet_1.docx, table 1: Supplementary Table 1.Activity of spider toxins on Kv2 and Kv4 channel subtypes Activities of spider toxins against different subtypes of Kv2 and Kv4 potassium channels are reported as IC50 (nanomolar) or as percentage of current inhibition at a single dose (nanomolar). Affinity (IC50) measurements | column: kv2.1 || Animal toxins target ion channels, and are thus valuable resources with potential therapeutic applications. The Kv4 subfamily from scorpion ([Maffie et al., 2013]; [Xie et al., 2014]) and spider venom ([Escoubas et al., 2002]; [Ebbinghaus et al., 2004]; [Yuan et al., 2007], [2012]; [DeSimone et al., 2009]) has a rich toxin pharmacology. HaTx, originally isolated from venom of the Chilean rose tarantula (Grammostola spatulata), inhibits Kv4.2 channels effectively, with similar affinity for Kv2.1 ([Swartz and MacKinnon, 1995]; [Swartz, 2007]). Other Kv4 channel inhibitors, Stromatoxin (ScTx1) fr ...
structure (smiles),measurement,setting,value
"CC[C@H](C)[C@H](NC(=O)[C@@H](NC(=O)[C@H](CCCCN)NC(=O)[C@H](CCCNC(=N)N)NC(=O)[C@@H]1CSSC[C@@H]2NC(=O)[C@H](C)NC(=O)[C@H](CCCNC(=N)N)NC(=O)[C@H](CCCCN)NC(=O)[C@H](CO)NC(=O)[C@H](CC(=O)O)NC(=O)[C@@H]3CSSC[C@H](NC(=O)[C@H](CCCNC(=N)N)NC(=O)[C@H](CC(C)C)NC(=O)CNC(=O)[C@H](CCC(=O)O)NC(=O)[C@H](CSSC[C@H](NC(=O)[C@@H](N)Cc4ccc(O)cc4)C(=O)N[C@@H](CCC(N)=O)C(=O)N[C@@H](CCCCN)C(=O)N[C@@H](Cc4c[nH]c5ccccc45)C(=O)N[C@@H](CCSC)C(=O)N[C@@H](Cc4c[nH]c5ccccc45)C(=O)N[C@@H]([C@@H](C)O)C(=O)N3)NC2=O)C(=O)N[C@@H](CCCCN)C(=O)N[C@@H](CC(C)C)C(=O)N[C@@H](Cc2c[nH]c3ccccc23)C(=O)N1)[C@@H](C)CC)C(=O)O [JZTX-V, Jingzhaotoxin-V]",reduction of sensitivity to the toxin vs WT Kv4.2,Kv4.2 V285A,~7 fold
same,reduction of sensitivity to the toxin vs WT Kv4.2,Kv4.2 V290A,~12 fold
same,percentage of current inhibition kv2.1,kv2.1,35% (5µM) O
